{
  "source": "patent CN102488699A",
  "about": "“芍药苷在制备防治肺纤维化药物中的应用” (China Pharmaceutical University, priority 2011, dated 2012)",
  "key": {"[1]": {"system": "hydroxyproline in lung tissue of pulmonary fibrosis mice [肺纤维化小鼠肺组织中羟脯氨酸]", "assay": "Effect on hydroxyproline content in lung tissue of pulmonary fibrosis mice (Fig. 3)", "assay_type": "in vivo, mouse"}, "[2]": {"system": "lipopolysaccharide-induced acute lung injury in mice [脂多糖引起的小鼠急性肺损伤]", "conditions": "intraperitoneal injection, Inflamm Res 2011,60(10):981-990; cited from earlier work"}, "[3]": {"system": "pulmonary fibrosis mice [肺纤维化小鼠]", "assay": "Effect on survival rate of mice with bleomycin-induced pulmonary fibrosis", "assay_type": "in vivo, mouse", "conditions": "intragastric, once daily from day 1, model group 50.0%; for survival rate: day 21 after bleomycin (5 mg/kg intratracheal)"}, "[4]": {"system": "lung tissue of pulmonary fibrosis mice [肺纤维化小鼠肺组织]", "assay": "Effect on collagen deposition in lung tissue of pulmonary fibrosis mice, Masson staining (Fig. 2)", "assay_type": "in vivo, mouse", "conditions": "intragastric, once daily, day 21, vs model group"}, "[5]": {"system": "TGF-β1 protein [TGF-β1蛋白]", "assay": "Effect on TGF-β1 protein expression in lung tissue of pulmonary fibrosis mice, Western blot (Fig. 5)", "assay_type": "in vivo, mouse", "conditions": "intragastric, once daily, day 21"}, "[6]": {"system": "bleomycin model mice [博来霉素模型小鼠]", "assay": "Effect on degree of alveolitis and pulmonary fibrosis in bleomycin model mice (Table 1)", "assay_type": "in vivo, mouse", "conditions": "intragastric, once daily, day 21, n=3"}, "[7]": {"system": "smooth muscle actin (α-SMA) [平滑肌肌动蛋白(α-SMA)]", "assay": "Effect on α-SMA expression in lung tissue of pulmonary fibrosis mice, Western blot (Fig. 4)", "assay_type": "in vivo, mouse", "conditions": "intragastric, once daily, day 21"}, "[8]": {"system": "lung tissue of pulmonary fibrosis mice [肺纤维化小鼠肺组织]", "assay": "Effect on lung tissue lesions of pulmonary fibrosis mice, HE staining (Fig. 1)", "assay_type": "in vivo, mouse", "conditions": "intragastric, once daily, day 21, vs model group"}},
  "data": [
    {"compound": "C[C@@]12C[C@@]3(O)O[C@@H](O1)[C@]1(COC(=O)c4ccccc4)[C@H]3C[C@@]12O[C@@H]1O[C@H](CO)[C@@H](O)[C@H](O)[C@H]1O", "note": "[芍药苷, Paeoniflorin]", "values": [
      {"measurement": "inhibition of collagen synthesis (in words)", "setting": "[1]; 50, 100 mg/kg, intragastric, once daily, day 21", "value": "剂量依赖性抑制胶原的合成"},
      {"measurement": "inhibition at 50 mg/kg", "setting": "[1]; Mus musculus, po, 504 h, 50 mg/kg, intragastric, once daily, day 21, read-out: inhibition rate of hydroxyproline content in lung tissue", "value": 20.6, "unit": "%"},
      {"measurement": "inhibition at 100 mg/kg", "setting": "[1]; Mus musculus, po, 504 h, 100 mg/kg, intragastric, once daily, day 21, read-out: inhibition rate of hydroxyproline content in lung tissue", "value": 31.4, "unit": "%"},
      {"measurement": "protective effect on acute lung injury", "setting": "[2]", "value": "具有明显的保护作用"},
      {"measurement": "survival rate", "setting": "[3]; 50 mg/kg", "value": 87.5, "unit": "%"},
      {"measurement": "survival rate", "setting": "[3]; 100 mg/kg", "value": 75.0, "unit": "%"},
      {"measurement": "collagen deposition and pulmonary fibrosis, Masson staining", "setting": "[4]; 100 mg/kg", "value": "肺组织结构较完整清晰,肺泡间隔轻度增厚,胶原沉积减少,肺纤维化程度明显减轻"},
      {"measurement": "TGF-β1 expression in lung tissue", "setting": "[5]; 100 mg/kg", "value": "显著降低"},
      {"measurement": "alveolar inflammation", "setting": "[6]; 100 mg/kg", "value": "抑制肺泡炎症"},
      {"measurement": "degree of pulmonary fibrosis", "setting": "[6]; 100 mg/kg", "value": "显著减低肺纤维化程度"},
      {"measurement": "α-SMA content in lung tissue", "setting": "[7]; 100 mg/kg", "value": "显著降低"},
      {"measurement": "degree of alveolitis, HE staining", "setting": "[8]; 100 mg/kg", "value": "肺泡炎程度明显减轻"},
      {"measurement": "lung tissue lesions, HE staining", "setting": "[8]; 100 mg/kg", "value": "肺组织结构较完整清晰,少量炎性细胞浸润及成纤维细胞增生,病变程度较模型组轻"}
    ]},
    {"compound": "CC(=O)OCC(=O)[C@@]1(O)CC[C@H]2[C@@H]3CCC4=CC(=O)C=C[C@]4(C)[C@H]3C(=O)C[C@@]21C", "note": "[泼尼松, 醋酸泼尼松, reference compound]", "values": [
      {"measurement": "inhibition at 6 mg/kg", "setting": "[1]; Mus musculus, po, 504 h, read-out: inhibition rate of hydroxyproline content in lung tissue", "value": 31.2, "unit": "%"},
      {"measurement": "survival rate (in words)", "setting": "[3]; 6 mg/kg, day 21 after bleomycin", "value": "与模型组相近"},
      {"measurement": "collagen deposition and pulmonary fibrosis, Masson staining", "setting": "[4]; 6 mg/kg", "value": "肺组织结构较完整清晰,肺泡间隔轻度增厚,胶原沉积减少,肺纤维化程度明显减轻"},
      {"measurement": "TGF-β1 expression in lung tissue", "setting": "[5]; 6 mg/kg", "value": "显著降低"},
      {"measurement": "alveolar inflammation", "setting": "[6]; 6 mg/kg", "value": "抑制肺泡炎症"},
      {"measurement": "degree of pulmonary fibrosis", "setting": "[6]; 6 mg/kg", "value": "显著减低肺纤维化程度"},
      {"measurement": "α-SMA content in lung tissue", "setting": "[7]; 6 mg/kg", "value": "显著降低"},
      {"measurement": "degree of alveolitis, HE staining", "setting": "[8]; 6 mg/kg", "value": "肺泡炎程度明显减轻"},
      {"measurement": "lung tissue lesions, HE staining", "setting": "[8]; 6 mg/kg", "value": "肺组织结构较完整清晰,少量炎性细胞浸润及成纤维细胞增生,病变程度较模型组轻"}
    ]}
  ]
}
